The test system of data set [1] is serotonin (5-HT). The experiment in a line: Basal serotonin (5-HT) output in hippocampal microdialysate after 6 daily oral doses. The note with it: male C57BI mice, basal level before 7th dose, hippocampal dialysate, student's t-test p<0.05. In kind it is in vivo. As for the experimental part:
(§1) Neurotransmitter release patterns in the brain were measured by a procedure which involved inserting a probe into the […] region (microdialysis probe) of a laboratory animal and flushing the probe via dialysis with an artificial cerebrospinal fluid (CSF). This is an accepted and common method used to obtain and measure in vivo brain levels of neurotransmitters and other small […].
(§2) The fluid being collected represents the extracellular or interstitial fluid found in the hippocampal region of the brain. This area is usually the preferred and typical area for microdialysis analysis because any changes measured in this area of the brain are believed to correspond with approximately 80% of whole brain tissue. […]
(§3) For the evaluation, male C57BI mice were divided into groups (6 per group) and administered a variety of compounds or a placebo orally for seven days. […] Each aliquot was then analyzed to determine the amount of GABA, glutamate, and serotonin (5-HT) in each sample. […]
(§4) First, basal output levels of each neurotransmitter were measured to determine any long-term, chronic effects of each compound on the neurotransmitters. […] These levels were determined by averaging the levels of each neurotransmitter in the three, 30-minute aliquots prior to the administration of the 7th daily dose (Sample −90 min to −60, Sample −60 minutes to −30, and Sample −30 minutes to time 0). […]

In data set [2] the test system is glutamate. The experiment in a line: Acute glutamate output in hippocampal microdialysate after the 7th daily dose. The data set is classed as in vivo, C57BI mice. Particulars: after 7th daily dose, % of basal output. The procedure:
as §1, §2, §3, §4

In data set [3] the test system is Wistar rats. The experiment in a line: Open-field activity as a measure of sedation. The data set is classed as in vivo. The note with it: PO daily for 14 days, vehicle 9062 ± 597. As for the experimental part: (§5) Wistar rats (16 per group) were dosed either with individual components (L-theanine, magnolia/phellodendron, and milk whey protein) or several combinations of the three, including the three-way combination (theanine+magnolia/phellodendron+milk whey protein). Magnolia/phellodendron combination was provided as a commercially available preparation (RELORA; InterHealth Nutraceuticals, Inc., Benicia, CA). Administered milk whey protein was standardized to 80% alpha-lactalbumin. The rats were dosed daily for 14 days, and then a series of behavioral assays were performed to detect any anxiolytic effects on the rats or sedative effects. The treatment groups were as follows: • 1: L-theanine+magnolia/phellodendron • 2: L-theanine+Milk Whey Protein • 3: magnolia/phellodendron+Milk Whey Protein • 4: L-theanine+magnolia/phellodendron+Milk Whey Protein • 5: L-theanine • 6: magnolia/phellodendron • 7: Milk Whey Protein
Locomotor activity in an open field test is a good measure of the sedative properties of a compound. As one example, a noted side-effect of many anxiolytic compounds such as benzodiazepines is marked sedation in conjunction with administration. […]
This test is performed by placing a rat in an open, brightly lit enclosure. The rats are videotaped, and the total distance the rat travels during the testing period is recorded as an indicator of locomotor activity. […]

Data set [4] relates to Wistar rats. Kind of data set: Elevated plus-maze (EPM) test. In kind it is in vivo. Particulars: PO daily for 14 days, 16 per group, vehicle 10 ± 2. As for the experimental part: as §5
The elevated plus-maze (EPM) capitalizes on the natural aversion (trait anxiety) of rodents on brightly lit, open, and elevated areas. The EPM has very strong predictive ability and is often used to profile the potential anxiolytic activity of compounds. During this test, the rats are videotaped after being placed in the elevated maze. The videos are analyzed to determine the % of time the rats stay in the open, elevated portions of the maze. […]

In data set [5] the test system is GABA. Kind of data set: Acute GABA output in hippocampal microdialysate after the 7th daily dose. In kind it is in vivo, C57BI mice. Particulars: up to 210 minutes after 7th daily dose, % of basal output, ANOVA p<0.05. As for the experimental part:
as §1, §2, §3, §4

The text below walks through data of US12194011B2, “Compositions comprising theanine, magnolia, and phellodendron” (Nutramax Laboratories, Inc., priority 2015, dated 2025).

As for `CCNC(=O)CC[C@H](N)C(=O)O` [Compound A, L-theanine], the “effect on basal output of serotonin (5-HT) vs placebo” value in data set [1] is given as “none of L-theanine, Relora, nor milk whey protein had any significant effect”. For the same compound, in data set [2], the “immediate treatment effect on glutamate levels” value was “neither the individual components (A, B, C) nor the combination (A+B+C) had an immediate treatment effect”. Also, the “Mean Distance (cm) ± SEM” value in data set [3] is on record as 9971 ± 652 cm. For the same compound, the “Mean % Time in open arms ± SEM” value in data set [4] was 13 ± 2%. Moreover, the “acute treatment effect on GABA vs placebo (ANOVA)” value in data set [5] is “no statistically significant treatment effects”.
